The target in assay [1] is T1, rTRPM8 (Rattus norvegicus, UniProt Q8R455).
T1 construct: expressed in transfected cells; host or cells: HEK293 (stably transfected)
Briefly: Patch-clamp electrophysiology, whole cell, HEK293 cells expressing rTRPM8. The assay is classed as cell-based. The settings on record: for IC50: Patch-clamp, holding potential -60 mV, read-out: IC50 TRPM8 current blockade; for Hill coefficient n: fit of concentration-response curve, -60 mV. An excerpt:
The TRPM8 antagonist activity of the enantiopure β-lactams 24a and 29a was further confirmed electrophysiologically by Patch-clamp experiments, using the whole cell configuration in HEK293 cells expressing TRPM8 channels.
The dose–response curve for both compounds was obtained at a holding potential of -60 mV (Supplementary Fig. S4).
Figure 2 Compounds 24a and 29a block TRPM8-mediated responses evoked by menthol in rTRPM8-expressing HEK293 cells. (A, C). I–V curves obtained in HEK293 cells expressing TRPM8 and exposed to vehicle solution (Vehicle; black trace; A,C), 100 µM menthol (red trace; A,C), 100 µM menthol + 10 µM 24a (blue trace; A) or to 100 µM menthol + 10 µM compound 29a (blue trace; C) (B,D), Concentration − response curves for TRPM8 current blockade by compound 24a (B) or compound 29a (D) at a holding voltage of -60 mV. Peak current data were expressed as pA/pF (to facilitate comparison among cells of different size) and expressed as a function of antagonist concentrations. The solid lines represent fits of the experimental data to the following binding isotherm: y = max/(1 + x/EC50)n, where x is the drug concentration and n the Hill coefficient. The fitted values for n were 0.97 ± 0.05 or 0.98 ± 0.6 for compound 24a or 29a, respectively. Each point is the mean ± SD of 8 (for compound 24a) or 9 (for compound 29a) determinations, each obtained in different cells. TEXT PRINTED IN THE PICTURE: (B) 24a: IC50=1,4±1,1 μM | (D) 29a: IC50=0,8±1,2 μM
Electrophysiological recording was carried out 1–3 days after cells seeded. Membrane currents and voltages were recorded by patch clamp using the whole-cell configuration. For whole-cell recordings of HEK-rTRPM8 cells, pipette solution contained (in mM) 150 NaCl, 5 EGTA, 3 MgCl2 and 10 HEPES, adjusted to pH 7.2 with NaOH, and bath solution contained (in mM) 150 NaCl, 6 CsCl, 1.5 CaCl2, 1 MgCl2, 10 D-glucose and 10 HEPES, adjusted to pH 7.4 with NaOH. Data were sampled at 10 kHz (EPC10 amplifier with PatchMaster 2.53 software, HEKA Electronics, Lambrecht, Germany) and low-pass filtered at 3 kHz for analysis (PatchMaster 2.53 and GraphPad Prism 5, Graphpad Software, USA). The series resistance was < 10 MΩ and to minimize voltage errors was compensated to 60–80%. All measurements were performed at 24–25 °C. The TRPM8 response was quantified as the ratio P2/P1, being P2 the second menthol pulse in the presence of the vehicle or antagonist tested, and P1 refers to the first menthol pulse. This paradigm considers the extend of receptor desensitization as the P2/P1 obtained with the vehicle. Thus, the estimated IC50 values are corrected from receptor desensitization.
A general note: In patch-clamp work, channel activity is measured electrically.

Assay [2] concerns the target T2, rat TRPM8 channel (Rattus norvegicus, UniProt Q8R455).
T2 construct: expressed in transfected cells; host or cells: HEK293 (stably transfected)
Put plainly: Ca2+ microfluorometry, menthol-induced Ca2+ influx in HEK293 cells expressing rat TRPM8. It is filed as cell-based. The settings on record: 100 µM menthol, HEK-rTRPM8; for % Blockade 5 µM: 5 µM compound; for % Blockade 50 µM: 50 µM compound; for IC50: Ca2+ microfluorometry. How it is done:
The ability to inhibit menthol-induced Ca^2+ intracellular influx into the cytosol on HEK293 cells heterologously expressing the rat TRPM8 channel was measured and compared to that of AMTB, a well-known TRPM8 antagonist. Representative recordings of fluorescence obtained in microfluorometry experiments for selected compounds are in Supplementary Fig. S3.
Human embryonic kidney cell line (HEK) stably transfected with rTRPM8 or h-TRPV1 were used as previously described. Briefly, cells were seeded in 96-well plates at a cell density of 30,000 cells 2 days before treatment. Buffer used was HBBS (in mM): 138 NaCl, 5.33 KCl, 1.26 CaCl2, 0.5 MgCl-6H2O, 0.4 MgSO4-7H2O, 4 NaHCO3 0.44 KH2PO4, 0.3 Na2HPO4, pH 7.4. The day of treatment the medium was replaced with 100 µL of the dye loading solution Fluo-4 NW supplemented with probenecid 2.5 mM. After incubation, plates were transferred to a fluorescence plate reader (Polastar BMG). In the experimental protocol, the baseline fluorescence was recorded ([…]) for 3 cycles. After, vehicle, compound at different concentrations and the corresponding antagonist, 10 µM AMTB for TRPM8 or 10 µM Ruthenium Red for TRPV1 were added to the well. Fluorescence intensity was recorded during 7 cycles more. Finally, the agonist 100 µM menthol for TRPM8 or 1 µM capsaicin for TRPV1 was added and fluorescence intensity was recorded during 10 cycles more.
The degree of inhibition of TRPM8 channel gating was calculated by comparison to calcium increase signal elicited by test substances and menthol at 100 µM. Decrease of menthol signal was expressed as percentage of inhibition (%). All data are expressed as mean ± standard deviation (SD). Each condition was assessed by triplicate (n = 3) in 3 independent experiments (N = 3). Z-factor was calculated in each assay using the following equation: […]. In all the experiments Z-factor was ≥ 0.5. To calculate IC50, normalized responses (%) versus log [µM] were adjusted to a non-linear fit with variable slope, a four-parameter dose–response curve following curve Y = 100/(1 + 10^((Log IC50-X)*HillSlope)) where […].

T2 sequence (Q8R455 whole entry): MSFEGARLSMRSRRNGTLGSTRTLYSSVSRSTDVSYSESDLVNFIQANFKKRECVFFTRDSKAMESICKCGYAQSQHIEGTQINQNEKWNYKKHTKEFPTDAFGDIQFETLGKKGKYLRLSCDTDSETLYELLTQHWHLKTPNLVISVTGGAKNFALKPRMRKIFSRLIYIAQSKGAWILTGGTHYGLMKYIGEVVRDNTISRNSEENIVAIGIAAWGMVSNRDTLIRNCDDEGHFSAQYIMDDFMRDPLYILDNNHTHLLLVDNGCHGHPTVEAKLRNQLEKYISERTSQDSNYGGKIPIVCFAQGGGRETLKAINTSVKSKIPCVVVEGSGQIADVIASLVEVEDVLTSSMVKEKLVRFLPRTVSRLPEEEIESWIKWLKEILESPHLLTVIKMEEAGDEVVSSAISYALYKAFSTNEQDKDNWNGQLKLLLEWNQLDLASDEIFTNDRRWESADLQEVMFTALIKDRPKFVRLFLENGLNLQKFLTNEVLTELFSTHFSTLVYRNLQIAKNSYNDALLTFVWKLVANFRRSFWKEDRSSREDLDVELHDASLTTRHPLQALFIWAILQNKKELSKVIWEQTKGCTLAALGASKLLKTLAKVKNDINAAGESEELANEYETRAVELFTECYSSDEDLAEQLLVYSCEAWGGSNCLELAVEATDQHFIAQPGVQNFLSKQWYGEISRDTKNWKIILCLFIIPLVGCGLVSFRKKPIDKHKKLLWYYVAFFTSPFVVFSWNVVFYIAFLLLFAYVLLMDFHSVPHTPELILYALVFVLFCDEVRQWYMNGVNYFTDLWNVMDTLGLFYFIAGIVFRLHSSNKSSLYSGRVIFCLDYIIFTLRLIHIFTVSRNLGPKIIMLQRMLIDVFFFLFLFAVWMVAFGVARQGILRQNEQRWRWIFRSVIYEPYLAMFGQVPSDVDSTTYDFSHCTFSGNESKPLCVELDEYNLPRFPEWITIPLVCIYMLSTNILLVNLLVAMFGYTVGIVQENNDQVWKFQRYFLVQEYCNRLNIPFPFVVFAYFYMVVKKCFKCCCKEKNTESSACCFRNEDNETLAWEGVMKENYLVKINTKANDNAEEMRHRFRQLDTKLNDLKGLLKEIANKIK
T1 sequence (Q8R455 whole entry): as above

As for `C[C@@H]1C(=O)N(C[C@H](Cc2ccccc2)NC(=O)OCc2ccccc2)[C@]1(Cc1ccccc1)C(=O)OCc1ccccc1` [Compound 24a, 4S-Benzyl-4-benzyloxycarbonyl-3S-methyl-1-[(2′S-benzyloxycarbonylamino-3′-phenyl)prop-1′-yl]-2-oxoazetidine], the “Effect on menthol-mediated TRPM8 activity (I-V curve)” value in assay [1] (10 µM compound, 100 µM menthol, +120 mV) is “important reduction on the menthol-mediated TRPM8 activity”. The IC50 in assay [1] (100 µM menthol) was 1.4 µM. The molecule further came in with a Hill coefficient n in assay [1] of 0.97 ± 0.05. Besides, in assay [2], the “% Blockade 5 µM” value is recorded as 65.4 ± 6.4%, the “% Blockade 50 µM” value is reported as 110.7 ± 11.7% and the IC50 is 2.4 ± 1.2 µM.
`C[C@@H]1C(=O)N(C[C@@H](Cc2ccccc2)NC(=O)OCc2ccccc2)[C@]1(Cc1ccccc1)C(=O)OCc1ccccc1` [Compound 29a, 4S-Benzyl-4-benzyloxycarbonyl-3S-methyl-1-[(2′R-benzyloxycarbonylamino-3′-phenyl)prop-1′-yl]-2-oxoazetidine]: the IC50 in assay [1] (100 µM menthol) stood at 0.8 µM. In assay [1], this molecule came in with a Hill coefficient n of 0.98 ± 0.6. Further, in assay [2], the “% Blockade 5 µM” value amounted to 97.2 ± 4.8%, the “% Blockade 50 µM” value turned out to be 100.0 ± 5.0% and the IC50 stood at 0.4 µM.

The IC50 is the concentration that inhibits the measured activity by half.
